“Also recorded” adds a separate entry of the source.
Columns and labels:
[1] = tested on: COS7 cells transfected with CDCA1 and HLA-A*3303; test: Specific CTL activity against target cells expressing CDCA1 and HLA-A*3303; type: cell-based, African green monkey; settings: listed as CDCA1-A33-9-43
Excerpt: A cDNA encoding the open-reading frame of a target gene or HLA-A*3303 was amplified by PCR. The PCR-amplified product was cloned into an expression vector. Either or both of the target gene-expressing vector and the HLA-A*3303-expressing vector were transfected into COS7, which is a cell line negative for the target gene and HLA, using Lipofectamine 2000 (Invitrogen) following the manufacturer's recommended protocol. Two days after transfection, the transfected cells were harvested using versene (Invitrogen), and used as the target cell for CTL activity assay (5×10^4 cells/well).
The CTL clone established against CDCA1-A33-9-43 (SEQ ID NO: 27) was investigated for its ability to recognize target cells expressing CDCA1 and the HLA-A*3303 molecule. COS7 cells transfected with both full-length CDCA1 and the HLA-A*3303 gene (a specific model of target cells expressing CDCA1 and the HLA-A*3303 gene) were prepared as the target cell. COS7 cells transfected with either full-length CDCA1 or HLA-A*3303 were prepared as the control.

[2] = tested on: peptide-pulsed C1R-A33 cells; test: IFN-gamma ELISPOT assay of peptide-induced CTLs (HLA-A*3303); type: cell-based, human; settings: CTLs induced from HLA-A*3303-positive donors, peptide-pulsed C1R-A33 vs control
Excerpt: Monocyte-derived dendritic cells (DCs) were used as the antigen-presenting cell to induce a cytotoxic T lymphocyte (CTL) response against peptides presented on human leukocyte antigens (HLAs). As described in the other sections, DCs were generated in vitro (Nakahara S et al., Cancer Res 2003, 63(14): 4112-8). Specifically, peripheral-blood mononuclear cells isolated from healthy volunteers (HLA-A*3303-positive) with the Ficoll-Paque plus solution (Pharmacia) were separated by attaching to plastic tissue culture dishes (Becton Dickinson) and concentrated as a monocyte fraction. The monocyte-concentrated population was cultured in the presence of 1000 IU/ml granulocyte macrophage colony-stimulating factor (R&D System) and 1000 IU/ml interleukin(IL)-4 (R&D System) in an AIM-V medium (Invitrogen) containing 2% heat-inactivated autologous serum (AS). After seven days of culturing, the cytokine-induced DCs were pulsed with 20 micro-g/ml each of the synthesized peptides in an AIM-V medium at 37 degrees C. for three hours in the presence of 3 micro-g/ml beta 2-microglobulin. The generated cells appeared to express on their cell surface DC-associated molecules such as CD80, CD83, CD86 and HLA class II (data not shown). Next, these peptide-pulsed DCs were inactivated by X-ray irradiation (20 Gy), and mixed in a 1:20 ratio with autologous CD8^+ T cells obtained by positive selection using the CD8 Positive Isolation Kit (Dynal). These culture products were seeded in a 48-well plate (Corning). Each well was made to contain 1.5×10^4 peptide-pulsed DCs, 3×10^5 CD8^+ T cells and 10 ng/ml IL-7 (R&D System) in 0.5 ml of the AIM-V/2% AS medium. Three days later, these culture products were added with a final concentration of 20 IU/ml IL-2 (CHIRON). On day 7 and day 14, T cells were further stimulated with peptide-pulsed autologous DCs. The DCs were prepared every time by the same method as above. On day 21, after the third peptide stimulation, CTLs were examined against the peptide-pulsed CIR-A33 cell by a human interferon (IFN)-gamma enzyme-linked immunospot (ELISPOT) assay (Tanaka H et al., Br J Cancer 2001, 84(1): 94-9; Umano Y et al., Br J Cancer 2001, 84(8): 1052-7; Uchida N et al., Clin Cancer Res 2004, 10(24): 8577-86; Suda T et al., Cancer Sci 2006, 97(5): 411-9; Watanabe T et al., Cancer Sci 2005, 96(8): 498-506).
(§1) Specifically, peptide-pulsed C1R-A33 (1×10^4 cells/well) was prepared as the stimulator cell. The induced CTLs, i.e., CTL lines and CTL clones, were used as the responder cell. The IFN-gamma ELISPOT assay and IFN-gamma ELISA were performed according to the manufacturer's manual.

peptide-pulsed C1R-A33 = test: IFN-gamma ELISA of CTL lines and CTL clones (HLA-A*3303); type: cell-based, human
Description: CTLs were propagated in culture using methods similar to those disclosed by Riddell et al. (Walter E A et al., N Engl J Med 1995, 333(16): 1038-44; Riddell S R et al., Nat Med 1996, 2(2): 216-23). The CTLs were co-cultured in a total of 25 ml AIM-V medium containing 5% AS (AIM-V/5% AS) and 40 ng/ml anti-CD3 antibody with two types of Mitomycin C-treated human B lymphoblastoid cell lines at 5×10^6 cells/flask. One day after beginning of the culturing, 120 IU/ml IL-2 was added to the culture. On days 5, 8 and 11, a fresh AIM-V/5% AS medium containing 30 IU/ml IL-2 was added to the culture (Tanaka H et al., Br J Cancer 2001, 84(1): 94-9; Umano Y et al., Br J Cancer 2001, 84(8): 1052-7; Uchida N et al., Clin Cancer Res 2004, 10(24): 8577-86; Suda T et al., Cancer Sci 2006, 97(5): 411-9; Watanabe T et al., Cancer Sci 2005, 96(8): 498-506).
Dilution of CTLs was carried out to make 0.3, 1 and 3 cells/well in 96 round-bottomed microtiter plates (Nalge Nunc International). The CTLs were co-cultured with two types of Mitomycin C-treated human B lymphoblastoid cell lines at 1×10^4 cells/well in a total of 150 micro-l/well AIM-V/5% AS medium with 30 ng/ml anti-CD3 antibody and 125 IU/ml IL-2. Ten days later, IL-2 was added to the medium at 50 micro-l/well to reach a final concentration of 125 IU/ml. On day 14, the CTL activity was tested, and the CTL clones were propagated using the same method as described above (Uchida N et al., Clin Cancer Res 2004, 10(24): 8577-86; Suda T et al., Cancer Sci 2006, 97(5): 411-9; Watanabe T et al., Cancer Sci 2005, 96(8): 498-506).
as §1

Sequence: EVLHMIYMR (a peptide derived from CDCA1) [SEQ ID NO: 27]
- specific CTL activity of CTL clone ([1]; COS7 cells transfected with both CDCA1 and HLA-A*3303): specific CTL activity; also recorded: potent CTL activity
- specific CTL activity of CTL clone against control cells ([1]; COS7 cells transfected with either full-length CDCA1 or HLA-A*3303): a significant specific CTL activity was not shown; also recorded: a significant specific CTL activity was not detected
- peptide-specific CTL activity (IFN-gamma production) [2]: potent IFN-gamma production
- IFN-gamma production of CTL clones (peptide-pulsed C1R-A33; CTL clones by limiting dilution, peptide-pulsed C1R-A33, listed as CDCA1-A33-9-43): Potent IFN-gamma production
- IFN-gamma production of CTL lines (peptide-pulsed C1R-A33; CTL lines, peptide-pulsed vs non-pulsed target cells, HLA-A*3303): potent IFN-gamma production

Reference: patent US10676514B2, “CDCA1-derived peptide and vaccine containing same” (ONCOTHERAPY SCIENCE, INC., priority 2014, dated 2020)
